This is an account of results in patent US20080003632A1, “Method for the In Vitro Determination of Cellular Uptake of Exogenous and Endogenous Substances Using Nmr Shift Agents and the Magic Angle Nmr Technique” (Bracco Imaging SpA, priority 2004, published 2008).

The test system of the series is HRBC (Human Red Blood Cells). Nature of the series: Cellular uptake of acetylsalicylic acid in red blood cells by 1H HR-MAS NMR with shift agent Dy-BOPTA. The class given is in vitro ADME. From the text:
Determination of Cellular Uptake of Acetylsalicylic Acid in Red Blood Cells
In this example, EXO=Acetylsalicylic acid; SA=Dy-BOPTA (Dy is the symbol of Dysprosium, one of the lanthanides known as shift agent).
The nucleus used to determine Acetylsalicylic acid cellular uptake is the proton.
The in vitro determination has been preformed on HRBC obtained by human blood treated as described below.
Centrifugation: the employed centrifuge was HERAEUS SEPATECH OMNIFUGE 2 ORS, rotor model 3360. Centrifugation was done at 2109 g (equivalent to 3500 rpm) at 4° C. for 15 minutes.
Living HRBC preparation: human blood (to which sodium citrate has been added as an anticoagulant) was centrifuged. After that, HRBC pellets were separated from serum and white cell interface, carefully obtaining a solution of red cells free of white cells; accordingly, red cells with 80% hematocrit were obtained.
Dy-BOPTA stock solution: a 0.1 M stock solution of Dy-BOPTA was used in all of the measurement to obtain the suitable [SA].
Acetylsalicylic acid stock solution: a 1 M stock solution of ASA containing 0.1 M of DSS (as internal standard for quantitative determination), was used in all of the measurements.
The solution was prepared by dissolving 180.16 mg of ASA and 23.63 mg of DSS in 200 ul of H2O, adding NaOH 2N until dissolution, lowering, if necessary, the pH to 7 with HCl 1N, then filling the volume to 1 ml. In this way two forms of ASA are generated that are below indicated as A and B.
Acetylsalicylic acid in HRBC: a sample containing 1 ml of HRBC (80% hematocrit), 100 μmoles of acetylsalicylic acid (i.e. 100 μl of acetylsalicylic acid stock solution) and 8 μmoles of Dy-BOPTA (i.e. 80 μl of Dy-BOPTA stock solution) was employed to measure the uptake of acetylsalicylic acid in HRBC.
Proton ^1H NMR spectra: all the ^1H NMR spectra have been acquired on a Bruker AMX 600 SB spectrometer at the frequency of 600.13 MHz. A multinuclear HR-MAS probehead with double bearing and 4 mm rotor with 12 μl spherical insert have been employed. Experimental conditions were: sample rotating speed=3500 Hz; spectra width=12,000 Hz (c.a. 20 ppm); time domain data points=128 K; number of scans=16; pulse length=11.7 μs; recycle delay=10 s; CPMG sequence; Fourier Transform by 0.5 Hz of enhancement multiplication function, sample temperature=25° C.
Proton spectra have been employed to determine acetylsalicylic acid cellular uptake, because ^1H is the sole nucleus present in acetylsalicylic acid having a high NMR sensitivity. […] Both of the two signals are marker^EXO signals.
The measurement of cellular uptake of acetylsalicylic acid by HRBC was calculated from the spectra reported in the enclosed FIG. 7.
Firstly, the ^1H NMR-MAS spectrum of HRBC was acquired (FIG. 7—trace a) in the absence of either acetylsalicylic acid (EXO) or of Dy-BOPTA (SA).
Then, 100 μl of acetylsalicylic acid 1M stock solution were added and the spectrum repeated (FIG. 7—trace b). In spectrum of trace b the two components for each signal A and B of the methyl group of acetylsalicylic acid were well visible, i.e. four peaks exist in the proton MAS-NMR spectrum. The splitting of signals A and B induces to suppose that the molecules of acetylsalicylic acid in the extra- and intra-cellular compartments are in magnetically different environments, i.e. the four observed signals corresponded to signals A e B into intra- and extra-cellular compartments, respectively.
Lastly, 80 μl of Dy-BOPTA stock solution were also added to the sample and the spectrum were again re-acquired (FIG. 7—trace c). […] Two components resulted unshifted with respect to the original marker^EXO signals while the other two components were shifted.
Acetylsalicylic acid corresponding to the unshifted marker^EXO signals is ACETYLSALICYLIC ACIDCC≠SA, i.e. acetylsalicylic acid in the intra-cellular compartment. […]

Consider `CC(=O)Oc1ccccc1C(=O)O` [acetylsalicylic acid], for which the “% of cellular uptake of acetylsalicylic acid A” value (form A, HRBC) was found to be 3.04%. In addition, for the setting “form A, extracellular fluid volume 0.38 ml”, the “concentration of acetylsalicylic acid o (A)” value is 154100 µM. In addition, the “μmoles acetylsalicylic acid o (A), amount in extra-cellular compartment” value (form A, extracellular, 1 ml HRBC 80% hematocrit, 100 μmoles ASA added, 8 μmoles Dy-BOPTA, 25° C.) amounted to 58.56 µmol. The “concentration of acetylsalicylic acid i (A)” value (form A, intracellular fluid volume 0.8 ml) worked out at 4830 µM. In addition, the “μmoles acetylsalicylic acid i (A), amount in intra-cellular compartment” value (form A, intracellular, 1 ml HRBC 80% hematocrit, 100 μmoles ASA added, 8 μmoles Dy-BOPTA, 25° C.) was 3.87 µmol. The “[acetylsalicylic acid]o/[acetylsalicylic acid]i (A)” value (form A, ratio of extra- to intra-cellular concentration) turned out to be 31.90. Besides, the “% of cellular uptake of acetylsalicylic acid B” value (form B, HRBC) is 10.40%. Also, the “concentration of acetylsalicylic acid o (B)” value (form B, extracellular fluid volume 0.38 ml) came out at 79440 µM. In addition, the “μmoles acetylsalicylic acid o (B), amount in extra-cellular compartment” value (form B, extracellular, 1 ml HRBC 80% hematocrit, 100 μmoles ASA added, 8 μmoles Dy-BOPTA, 25° C.) stood at 30.19 µmol. For the same compound, where the note is “form B, intracellular fluid volume 0.8 ml”, the “concentration of acetylsalicylic acid i (B)” value was determined as 9220 µM. The “μmoles acetylsalicylic acid i (B), amount in intra-cellular compartment” value (form B, intracellular, 1 ml HRBC 80% hematocrit, 100 μmoles ASA added, 8 μmoles Dy-BOPTA, 25° C.) turned out to be 7.38 µmol. For the same compound, the “[acetylsalicylic acid]o/[acetylsalicylic acid]i (B)” value (form B, ratio 79.44/9.22 of extra- to intra-cellular concentration) is 8.61. In addition, the “% of cellular uptake of total acetylsalicylic acid” value (forms A + B, HRBC) turned out to be 5.67%.
